Consider 15 compounds from US11365174B2 (priority 2016, dated 2022).

Entries after “also recorded” stand apart in the source; their conditions may differ. Like-named read-outs stand apart in the source and are kept apart here.

The test system of the assay is Influenza A virus strain A/Puerto Rico/8/1934 H1N1 (PR8; amantadine-resistant). The assay is classed as cell-based. To be noted: for potency of antiviral activity for the PR8 strain compared to amantadine or to other compounds of the class: comparison within figure; for antiviral activity for the PR8 strain (NA activity as read-out for viral protein synthesis/replication): L929 cells, 18-20 hours, fluorescence normalized to DMSO; for antiviral activity for the PR8 strain (NA activity as read-out for viral protein synthesis/replication) / selective activity against PR8 strain in first screen of docking hits: half-log dilutions; for selective activity against PR8 strain in first screen of docking hits: 1-10 uM, alongside DMSO and amantadine, normalized to DMSO.

With `COc1ccccc1CNS(=O)(=O)c1c(C)cc([N+](=O)[O-])cc1C` [JDB-0120], the “potency of antiviral activity for the PR8 strain compared to amantadine or to other compounds of the class” value was “the most potent inhibitors of NA activity and PR8 virus replication; also recorded: the greatest activity for small molecules; also recorded: the greatest biological activity in the sulfonamide series”.

As for `Cc1cc([N+](=O)[O-])cc(C)c1S(=O)(=O)NCc1ccccc1Cl` [JDB-0121], the “potency of antiviral activity for the PR8 strain compared to amantadine or to other compounds of the class” value is “the most potent inhibitors of NA activity and PR8 virus replication; also recorded: the greatest activity for small molecules; also recorded: the greatest biological activity in the sulfonamide series”.

For the compound `NC12CC3CC(CC(C3)C1)C2` [amantadine, reference compound], the “antiviral activity for the PR8 strain (NA activity as read-out for viral protein synthesis/replication)” value was “moderately inhibited PR8 replication at high enough concentrations”. Further, the “antiviral activity for the PR8 strain (NA activity as read-out for viral protein synthesis/replication)” value (listed as Amantadine) was “moderately inhibit the replication of the PR8 strain”.

For `COc1ccc(C2OCC3(CO)C(C)C=C(C)C2C3C)cc1` (stereo not drawn) [analog 2, [8-(4-methoxyphenyl)-2,4,9-trimethyl-7-oxabicyclo[3.3.1]non-2-en-5-yl]methanol], the “antiviral activity for the PR8 strain (NA activity as read-out for viral protein synthesis/replication)” value is on record as “antiviral activity for the PR8 strain” and the “potency of antiviral activity for the PR8 strain compared to amantadine or to other compounds of the class” value is on record as “more potent antiviral activity”.

Regarding `CC1=CCC2CC1C(c1ccc(O)cc1)OC2(C)C` (stereo not drawn) [analog 4, 4-(2,2,6-trimethyl-3-oxabicyclo[3.3.1]non-6-en-4-yl)phenol], the “antiviral activity for the PR8 strain (NA activity as read-out for viral protein synthesis/replication)” value is “antiviral activity for the PR8 strain” and the “potency of antiviral activity for the PR8 strain compared to amantadine or to other compounds of the class” value is “the most potent; also recorded: more potent antiviral activity”.

Take `COc1cc(C2OCC3(CO)C(C)C=C(C)C2C3C)ccc1O` (stereo not drawn) [analog 5, 4-[5-(hydroxymethyl)-2,4,9-trimethyl-7-oxabicyclo[3.3.1]non-2-en-8-yl]-2-methoxyphenol]: the “antiviral activity for the PR8 strain (NA activity as read-out for viral protein synthesis/replication)” value is given as “antiviral activity for the PR8 strain” and the “potency of antiviral activity for the PR8 strain compared to amantadine or to other compounds of the class” value is reported as “more potent antiviral activity”.

Consider `Cc1cccc(CNS(=O)(=O)c2c(C)cc(C)cc2C)c1` [analog 7, 2,4,6-trimethyl-N-[(3-methylphenyl)methyl]benzenesulfonamide], for which the “antiviral activity for the PR8 strain (NA activity as read-out for viral protein synthesis/replication)” value is “potent inhibitors of NA activity and PR8 virus replication; also recorded: antiviral activity for the PR8 strain”; the “potency of antiviral activity for the PR8 strain compared to amantadine or to other compounds of the class” value is given as “more potent antiviral activity; also recorded: more potent than amantadine”.

`Cc1cc(C)c(S(=O)(=O)NCc2ccccc2Cl)c(C)c1` [analog 11, N-[(2-chlorophenyl)methyl]-2,4,6 trimethylbenzenesulfonamide]: the “antiviral activity for the PR8 strain (NA activity as read-out for viral protein synthesis/replication)” value is “potent inhibitors of NA activity and PR8 virus replication; also recorded: antiviral activity for the PR8 strain”; the “potency of antiviral activity for the PR8 strain compared to amantadine or to other compounds of the class” value is on record as “the most potent”.

For the compound `CC12CC3CC(C)(C1)CC(C(=O)Nc1ccc([N+](=O)[O-])cc1)(C3)C2` [analog 18, 3,5-dimethyl-N-(4-nitrophenyl)adamantane-1-carboxamide], the “antiviral activity for the PR8 strain (NA activity as read-out for viral protein synthesis/replication)” value is reported as “antiviral activity for the PR8 strain” and the “potency of antiviral activity for the PR8 strain compared to amantadine or to other compounds of the class” value was “the most potent”.

Consider `Cc1cc([N+](=O)[O-])ccc1NC(=O)CC12CC3CC(CC(C3)C1)C2` [analog 21, 2-(1-adamantyl)-N-(2-methyl-4-nitrophenyl)acetamide], for which the “antiviral activity for the PR8 strain (NA activity as read-out for viral protein synthesis/replication)” value is on record as “antiviral activity for the PR8 strain”.

For the compound `O=[N+]([O-])c1ccc(C23CC4CC(CC(C4)C2)C3)cc1` [analog 23, 1-(4-nitrophenyl)adamantane], the “antiviral activity for the PR8 strain (NA activity as read-out for viral protein synthesis/replication)” value is on record as “antiviral activity for the PR8 strain”.

As to `COc1ccccc1CNS(=O)(=O)c1c(C)cc(C)cc1C` [analog 31, N-[(2-methoxyphenyl)methyl]-2,4,6 trimethylbenzenesulfonamide], the “antiviral activity for the PR8 strain (NA activity as read-out for viral protein synthesis/replication)” value was “potent inhibitors of NA activity and PR8 virus replication; also recorded: antiviral activity for the PR8 strain”; the “potency of antiviral activity for the PR8 strain compared to amantadine or to other compounds of the class” value is given as “the greatest activity”.

Regarding `Cc1cc(C)c(S(=O)(=O)NCc2ccccc2)c(C)c1` [compound 3, N-benzyl-2,4,6-trimethylbenzenesulfonamide], the “antiviral activity for the PR8 strain (NA activity as read-out for viral protein synthesis/replication)” value is “antiviral activity for the PR8 strain”, the “potency of antiviral activity for the PR8 strain compared to amantadine or to other compounds of the class” value is “more potent than amantadine” and the “selective activity against PR8 strain in first screen of docking hits” value (from here on “selective activity”) is on record as “selective activity against PR8 strain”.

Take `O=C(CC12CC3CC(CC(C3)C1)C2)Nc1ccc([N+](=O)[O-])cc1` [compound 16, 2-(1-adamantyl)-N-(4-nitrophenyl)acetamide]: the “antiviral activity for the PR8 strain (NA activity as read-out for viral protein synthesis/replication)” value is on record as “antiviral activity for the PR8 strain” and the “selective activity” value is given as “selective activity against PR8 strain”.

`O=[N+]([O-])c1ccc(C23CC4CC(CC(O)(C4)C2)C3)cc1` [compound 19, 3-(4-nitrophenyl)adamantan-1-ol]: the “antiviral activity for the PR8 strain (NA activity as read-out for viral protein synthesis/replication)” value is recorded as “antiviral activity for the PR8 strain” and the “selective activity” value is “selective activity against PR8 strain”.
